The numbers were not newly measured in paper PMC6606825 (Journal of Ginseng Research, 2018), which cites them from elsewhere.

For series [1] the following is noted: PK data in animals and healthy individuals; cited from earlier work.
For series [2], the system named is cytochrome P450 enzymes (CYPs). The note with it: in vitro; ref unpublished; cited from earlier work.

For `CC(C)=CCC[C@](C)(O[C@@H]1O[C@H](CO)[C@@H](O)[C@H](O)[C@H]1O)[C@H]1CC[C@]2(C)[C@@H]1[C@H](O)C[C@@H]1[C@@]3(C)CC[C@H](O)C(C)(C)[C@@H]3CC[C@]12C` [Ginsenoside compound K, 20-O-beta-D-glucopyranosyl-20(S)-protopanaxadiol], in series [1], the oral bioavailability result is reported as “poor oral bioavailability”. Moreover, the “effects of CYPs on CK” value in series [2] is given as “minimal effects”.
